Patent US9493466B2, “Treatment of cancer with TOR kinase inhibitors” (Signal Pharmaceuticals, LLC, priority 2011, dated 2016)
Read-outs that look alike come from different tables or passages of the source.

Key:
[1] = Phase 1/2 study Part A: pharmacokinetics; type: in vivo, human
Experimental: During the first cycle only in Part A, each subject will be administered a single dose of Compound 1 (Day −1), followed by a 48-hour observation and PK sampling period, followed on Day 1 by daily uninterrupted dosing for 28 days (Cycle 1=30 days). In subsequent Part A cycles, subjects are treated in 28-day cycles with continuous dosing from Day 1 to 28. In Part B, subjects will receive continuous dosing for 28 days from the beginning—there is neither an initial observation period nor a 48-hour PK collection.

[2] = test system: NSCLC primary tumor grafts; assay: Low passage tumorgraft models of NSCLC; type: in vivo, immunocompromised mice; details: 1, 5 and 10 mg/kg once daily for 28 days
Experimental: In Vivo Evaluation of Compound 1 in Low Passage Tumorgraft Models of Non-Small Cell Lung Cancer (NSCLC). The objective of the study was to evaluate the single agent efficacy of Compound 1 in non-small cell lung cancer (NCSLC) models. The antitumor activity of Compound 1 was evaluated in low passage non-small cell lung cancer (NSCLC) tumorgraft models. The tumorgrafts were developed by directly implanting the human tumor fragments into immunocompromised mice and then subsequently passaged in vivo. The tumors from these primary tumorgrafts have preserved biological and morphological characteristics of the original human tumors. The antitumor activity of Compound 1 was evaluated at three dose levels (1, 5 and 10 mg/kg) with once daily dosing for 28 days. During the course of the study antitumor activity was evaluated by measuring the tumors.

[3] = test system: U87MG tumors; assay: U87MG human glioblastoma xenograft model (Compound 2); type: in vivo, SCID mice
Experimental: U87MG Human Glioblastoma Xenograft Model (Compound 2). Efficacy Studies: Groups of female SCID mice bearing U87MG tumors (n=8-10/group) were dosed orally with vehicle or Compound 2 (doses ranged between 0.05 and 1 mg/kg) throughout the study, starting when tumor volumes reached approximately 170-180 mm^3. The twice daily (BID) dose groups were dosed with a 10-hour separation between morning and evening doses. In the positive control group, rapamycin was administered every third day (Q3D) via intraperitoneal (IP) route. At the end of each study, plasma and/or tumor samples were collected.
Cell Line and Culture. U87MG cell line was obtained from American Tissue Culture Collection (ATCC) (Gaithersburg, Md.) and grown in growth medium containing MEM, 2 mM L-glutamine, 0.1 mM non-essential amino acids, and 1 mM sodium pyruvate plus 10% FBS. The cells were detached from tissue culture flasks using trypsin-EDTA. After centrifugation, the cell pellets were suspended in PBS and cells counted using a hemocytometer. The final volume was adjusted to 5×10^6 cells/0.1 mL of PBS.
Tumor Cell Inoculation. […]
Randomization of Animals. […] The tumor of each animal was measured and animals with tumors ranging between 170 and 180 mm^3 were included in the study. […]
Tumor Measurements. Tumor volumes were determined prior to the initiation of treatment and were considered as the starting volumes. Thereafter, tumors were measured twice a week for the duration of the study. The long and short axes of each tumor were measured using a digital caliper in millimeters. Tumor volumes were calculated using the formula: width^2×length/2. […]
Body Weight Measurements. Initial body weights were recorded prior to the initiation of treatment using a digital scale. The percentage body weight change during the course of the study was calculated using initial body weight measurements. Body weights of each animal were measured twice a week at the same time as the tumor measurements. Body weights were measured more frequently if significant decreases were noted during the course of the study.

[4] = test system: Anbl 6; assay: Cell proliferation and viability assay for MM lines; type: cell-based; details: Homo sapiens, 120 h, Anbl 6, 5 days, 7AAD FACS
Experimental: Cell Proliferation and Viability Assay for MM Lines. Prior to use, cells were washed and maintained in medium for 5 days. Cells were seeded out at a density of 0.3×10^6 cells/mL in a 12-well plate and treated with Compound 1 or Compound 2 for 5 days. 7AAD detection fluorescence-activated cell sorting (FACS) flow cytometry was used in the analysis.

SMILES | mean steady state Cmax ([1]; 45 mg, day 15) [ng/mL] | AUC0-24 ([1]; 45 mg, mean steady state) [ng^xhr/mL] | drug accumulation ([1]; after 15 days of dosing) | exposures versus levels estimated to provide >50% inhibition of TORC1 (pS6) and TORC2 (pAKT) for at least 8 hours ([1]; dose levels of 30 mg and higher, estimate from preclinical xenograft models) | drug exposure versus dose ([1]; high intersubject variability) | growth of tumor grafts [2] | average tumor volumes compared with vehicle ([3]; 0.05, 0.1 and 0.3 mg/kg BID oral, Day 35) | average tumor volumes compared with vehicle ([3]; 0.1, 0.5 and 1 mg/kg QD oral, Day 34) | lowest efficacious dose (approximately 65% tumor volume inhibition) ([3]; QD oral, 3 weeks) [mg/kg] | IC50 ([4]; read-out: IC50, Proliferation) [nM] | IC50 ([4]; read-out: IC50, Viability) [nM]
CO[C@H]1CC[C@H](N2C(=O)CNc3ncc(-c4ccc(C(C)(C)O)nc4)nc32)CC1 [Compound 1, 7-(6-(2-hydroxypropan-2-yl)pyridin-3-yl)-1-((1r,4r)-4-methoxycyclohexyl)-3,4-dihydropyrazino-[2,3-b]pyrazin-2(1H)-one] | 485 | 2371 | only minimal drug accumulation | exceeded | Dose proportional | significantly inhibited | – | – | – | – | –
CCN1C(=O)CNc2ncc(-c3ccc(-c4nc[nH]n4)nc3C)nc21 [Compound 2, 1-ethyl-7-(2-methyl-6-(1H-1,2,4-triazol-3-yl)pyridin-3-yl)-3,4-dihydropyrazino[2,3-b]pyrazin-2(1H)-one] | – | – | – | – | – | – | significantly smaller (p<0.001) | significantly smaller (p<0.001) | 0.5 | 370 | 780
